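Following 48 hours of exposure in 96-well plates, responses at five concentrations were used to interpolate endpoints linearly. TGI marks complete inhibition of growth.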
Columns and labels:
Assay in all cases: DTP human tumour cell line panel, 48 h
CCRF-CEM leukemia = system: CCRF-CEM leukemia
MALME-3M melanoma = system: MALME-3M melanoma
T-47D breast = system: T-47D breast
SN12C renal = system: SN12C renal
RPMI-8226 leukemia = system: RPMI-8226 leukemia
SF-539 CNS = system: SF-539 CNS
SK-MEL-28 melanoma = system: SK-MEL-28 melanoma
OVCAR-5 ovarian = system: OVCAR-5 ovarian
DU-145 prostate = system: DU-145 prostate
HS 578T breast = system: HS 578T breast
SNB-75 CNS = system: SNB-75 CNS
MOLT-4 leukemia = system: MOLT-4 leukemia
HL-60(TB) leukemia = system: HL-60(TB) leukemia
K-562 leukemia = system: K-562 leukemia
A498 renal = system: A498 renal
RXF 393 renal = system: RXF 393 renal
HT29 colon = system: HT29 colon
OVCAR-3 ovarian = system: OVCAR-3 ovarian
U251 CNS = system: U251 CNS
NCI-H226 lung = system: NCI-H226 lung
EKVX NSCLC = system: EKVX NSCLC
CAKI-1 renal = system: CAKI-1 renal
NCI-H522 lung = system: NCI-H522 lung
MDA-N = system: MDA-N
OVCAR-4 ovarian = system: OVCAR-4 ovarian
LOX IMVI melanoma = system: LOX IMVI melanoma
SW-620 colon = system: SW-620 colon
SK-MEL-5 melanoma = system: SK-MEL-5 melanoma
HCT-15 colon = system: HCT-15 colon
NCI-H460 lung = system: NCI-H460 lung
TK-10 renal = system: TK-10 renal
UO-31 renal = system: UO-31 renal
SK-OV-3 ovarian = system: SK-OV-3 ovarian
SF-295 CNS = system: SF-295 CNS
MCF7 breast = system: MCF7 breast
PC-3 prostate = system: PC-3 prostate
KM12 colon = system: KM12 colon
IGROV1 ovarian = system: IGROV1 ovarian
SF-268 CNS = system: SF-268 CNS
ACHN renal = system: ACHN renal
BT-549 breast = system: BT-549 breast
SNB-19 CNS = system: SNB-19 CNS
COLO 205 colon = system: COLO 205 colon
SK-MEL-2 melanoma = system: SK-MEL-2 melanoma
OVCAR-8 ovarian = system: OVCAR-8 ovarian
NCI/ADR-RES ovarian = system: NCI/ADR-RES ovarian
HCT-116 colon = system: HCT-116 colon
A549 NSCLC = system: A549 NSCLC
786-0 renal = system: 786-0 renal
M14 melanoma = system: M14 melanoma
HOP-62 NSCLC = system: HOP-62 NSCLC
HOP-92 NSCLC = system: HOP-92 NSCLC
SR leukemia = system: SR leukemia
UACC-257 melanoma = system: UACC-257 melanoma
NCI-H23 lung = system: NCI-H23 lung
HCC-2998 colon = system: HCC-2998 colon
MDA-MB-231 breast = system: MDA-MB-231 breast
UACC-62 melanoma = system: UACC-62 melanoma
MDA-MB-435 = system: MDA-MB-435

CCC(Sc1cc(Cl)c(C)cc1S(=O)(=O)Nc1nc(N)nc(N(C)C)n1)C(=O)O (stereo not given)
TGI (CCRF-CEM leukemia): > 10 µM | TGI (MALME-3M melanoma): > 10 µM | TGI (T-47D breast): > 10 µM | TGI (SN12C renal): > 10 µM | TGI (RPMI-8226 leukemia): > 10 µM | TGI (SF-539 CNS): > 10 µM | TGI (SK-MEL-28 melanoma): > 10 µM | TGI (OVCAR-5 ovarian): > 10 µM | TGI (DU-145 prostate): > 10 µM | TGI (HS 578T breast): > 10 µM | TGI (SNB-75 CNS): > 10 µM | TGI (MOLT-4 leukemia): > 10 µM | TGI (HL-60(TB) leukemia): > 10 µM | TGI (K-562 leukemia): > 10 µM | TGI (A498 renal): > 10 µM | TGI (RXF 393 renal): > 10 µM | TGI (HT29 colon): > 10 µM | TGI (OVCAR-3 ovarian): > 10 µM | TGI (U251 CNS): > 10 µM | TGI (NCI-H226 lung): > 10 µM | TGI (EKVX NSCLC): > 10 µM | TGI (CAKI-1 renal): > 10 µM | TGI (NCI-H522 lung): > 10 µM | TGI (MDA-N): > 10 µM | TGI (OVCAR-4 ovarian): > 10 µM | TGI (LOX IMVI melanoma): > 10 µM | TGI (SW-620 colon): > 10 µM | TGI (SK-MEL-5 melanoma): > 10 µM | TGI (HCT-15 colon): > 10 µM | TGI (NCI-H460 lung): > 10 µM | TGI (TK-10 renal): > 10 µM | TGI (UO-31 renal): > 10 µM | TGI (SK-OV-3 ovarian): > 10 µM | TGI (SF-295 CNS): > 10 µM | TGI (MCF7 breast): > 10 µM | TGI (PC-3 prostate): > 10 µM | TGI (KM12 colon): > 10 µM | TGI (IGROV1 ovarian): > 10 µM | TGI (SF-268 CNS): > 10 µM | TGI (ACHN renal): > 10 µM | TGI (BT-549 breast): > 10 µM | TGI (SNB-19 CNS): > 10 µM | TGI (COLO 205 colon): > 10 µM | TGI (SK-MEL-2 melanoma): > 10 µM | TGI (OVCAR-8 ovarian): > 10 µM | TGI (NCI/ADR-RES ovarian): > 10 µM | TGI (HCT-116 colon): > 10 µM | TGI (A549 NSCLC): > 10 µM | TGI (786-0 renal): > 10 µM | TGI (M14 melanoma): > 10 µM | TGI (HOP-62 NSCLC): > 10 µM | TGI (HOP-92 NSCLC): > 10 µM | TGI (SR leukemia): > 10 µM | TGI (UACC-257 melanoma): > 10 µM | TGI (NCI-H23 lung): > 10 µM | TGI (HCC-2998 colon): > 10 µM

OC(CCN1CCCCC1)(c1ccccc1)c1ccccc1
TGI (MDA-MB-231 breast): > 100 µM | TGI (CCRF-CEM leukemia): > 100 µM | TGI (MALME-3M melanoma): > 100 µM | TGI (T-47D breast): > 100 µM | TGI (SN12C renal): > 100 µM | TGI (RPMI-8226 leukemia): > 100 µM | TGI (SK-MEL-28 melanoma): > 100 µM | TGI (OVCAR-5 ovarian): > 100 µM | TGI (UACC-62 melanoma): > 100 µM | TGI (DU-145 prostate): > 100 µM | TGI (MOLT-4 leukemia): > 100 µM | TGI (K-562 leukemia): > 100 µM | TGI (A498 renal): > 100 µM | TGI (RXF 393 renal): > 100 µM | TGI (HT29 colon): > 100 µM | TGI (OVCAR-3 ovarian): > 100 µM | TGI (U251 CNS): > 100 µM | TGI (EKVX NSCLC): > 100 µM | TGI (CAKI-1 renal): > 100 µM | TGI (NCI-H522 lung): > 100 µM | TGI (MDA-N): > 100 µM | TGI (LOX IMVI melanoma): > 100 µM | TGI (SW-620 colon): > 100 µM | TGI (SK-MEL-5 melanoma): > 100 µM | TGI (HCT-15 colon): > 100 µM | TGI (TK-10 renal): > 100 µM | TGI (UO-31 renal): > 100 µM | TGI (SK-OV-3 ovarian): > 100 µM | TGI (SF-295 CNS): > 100 µM | TGI (MCF7 breast): > 100 µM | TGI (PC-3 prostate): > 100 µM | TGI (KM12 colon): > 100 µM | TGI (IGROV1 ovarian): > 100 µM | TGI (SF-268 CNS): > 100 µM | TGI (ACHN renal): > 100 µM | TGI (BT-549 breast): > 100 µM | TGI (SNB-19 CNS): > 100 µM | TGI (MDA-MB-435): > 100 µM | TGI (COLO 205 colon): > 100 µM | TGI (SK-MEL-2 melanoma): > 100 µM | TGI (OVCAR-8 ovarian): > 100 µM | TGI (NCI/ADR-RES ovarian): > 100 µM | TGI (HCT-116 colon): > 100 µM | TGI (A549 NSCLC): > 100 µM | TGI (786-0 renal): > 100 µM | TGI (M14 melanoma): > 100 µM | TGI (HOP-62 NSCLC): > 100 µM | TGI (HOP-92 NSCLC): > 100 µM | TGI (NCI-H23 lung): > 100 µM

From PubChem BioAssay (NCI)
